Experimental data taken from patent publication US20240315237A1, “METHODS FOR SINGLE CELL ANALYSIS OF GLUCOSE INTERNALIZATION” (ABBOTT DIABETES CARE INC., priority 2023, published 2024).
Values joined by “and” are separate entries in the source; they are usually repeats but may differ in a detail not shown here. Identical values can stand only once. “Also recorded” adds a separate entry of the source.

What was measured:
Assay type in all cases: cell-based
GLUT1 [1] = biological target: T1, GLUT1 (Homo sapiens, UniProt P11166); experiment: glucose competition study with unlabeled D-glucose (flow cytometry); settings: 20 μM tracer; for mean intensity maintained, % of the mean intensity of the control sample: 100 mM unlabeled D-glucose (5000× tracer), 60 min, 37° C., human RBCs
T1 construct: Adult human RBCs exclusively express the glucose transporter 1 (GLUT1) encoded by the SLC2A1 gene; endogenous in cells; host or cells: human erythrocytes (RBCs) isolated from blood
T1 sequence (P11166 1-492): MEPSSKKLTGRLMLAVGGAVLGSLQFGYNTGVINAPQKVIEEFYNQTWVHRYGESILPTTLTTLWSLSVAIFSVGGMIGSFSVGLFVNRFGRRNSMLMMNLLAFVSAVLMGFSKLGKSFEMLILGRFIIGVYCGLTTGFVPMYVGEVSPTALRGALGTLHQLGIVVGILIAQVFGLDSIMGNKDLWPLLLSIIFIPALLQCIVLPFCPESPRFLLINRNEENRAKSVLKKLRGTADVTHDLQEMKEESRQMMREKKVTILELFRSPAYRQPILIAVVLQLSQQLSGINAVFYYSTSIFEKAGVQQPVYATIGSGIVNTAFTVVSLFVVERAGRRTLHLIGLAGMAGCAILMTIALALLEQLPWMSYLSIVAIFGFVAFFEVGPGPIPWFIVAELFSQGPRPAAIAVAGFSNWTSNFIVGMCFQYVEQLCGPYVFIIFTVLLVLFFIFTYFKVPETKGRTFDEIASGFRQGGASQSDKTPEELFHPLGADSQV
Experimental: (§1) To test the tracer specificity, a competition experiment was first performed on the flow cytometer under identical settings as were used in the membrane integrity experiments above. Aliquots of solutions of RBCs containing KCl solution and 20 μM of a given glucose tracer were incubated for 60 minutes at 37° C. shaker at 400 RPM containing a selected concentration of unlabeled D-glucose (i.e., 0.00, 0.01, 0.50, 1.00, 5.00, 25.00, 50.00 or 100.00 mM). After incubation, cells were washed one time in 125 KCl solution containing the selected concentration of D-glucose and promptly measured on the flow cytometer using the conditions described above. Next, GLUT1-specific transport was further tested by preparing washed RBC solutions as described above and then incubating the RBC solutions with one of the GLUT1 inhibitors on a 37° C. shaker at 400 RPM for one hour of incubation. […] Samples were then spun down, and supernatant was removed and fresh inhibitor/KCl solution was added and inverted. Glucose tracers were then added at working concentrations of 20 μM and incubated for 30 minutes on a 37° C. shaker at 400 RPM. After 30 minutes, cells were quickly spun down again using the protocol described in herein and supernatant was removed and replaced with fresh inhibitor/KCl solution before immediately being placed on the flow cytometer. Each sample was run on the flow cytometer using identical settings described above.

GLUT1 [2] = biological target: T1, GLUT1; experiment: small molecule GLUT1 inhibition study of tracer uptake (flow cytometry)
Experimental: as §1, with “Each sample was run on the flow cytometer using identical settings described above.” left out

human erythrocytes = experiment: single cell 2-NBDG uptake in anchored RBCs (microfluidic perfusion, confocal microscopy)
Experimental: Sample preparation. Human whole blood from an individual donor was drawn into sodium heparin (NaHep) and shipped cold. Samples were received directly from BioIVT LLC and placed into 4° C. refrigeration until prepared for experimentation. Samples removed from refrigeration for experimentation purposes were first inverted for three minutes and then 200 μL were drawn from the collection tubes and placed into a fresh 1.5 mL centrifuge tube containing 1 mL of 125 mM KCl solution. Samples were gently inverted 5-10× and then placed in a 4° C. centrifuge and spun using a modified RBC isolation protocol aimed at reducing clotting of whole blood and deformation of RBCs (Hanson et al., American Journal of Physiology Heart and Circulatory Physiology, 2008. 295(2): p. H786-H793). Centrifugation-based separation of RBCs was performed at 2000 RPM (490×g) for 5 minutes. After centrifugation, supernatant was removed along with buffy coat (white blood cells, etc.) using a pipette and a fresh 1 mL of KCl solution was then added. This process was repeated 3× to isolate RBCs and diminish intracellular glucose.
Samples were then vortexed gently and placed on a 37° C. shaker at 400 RPM for one hour for incubation. Due to the high expression of glycophorin A+B in erythrocytes, it was a simple membrane target for antibody anchoring of cells to the microfluidic imaging surface using the biotin binding Neutravidin™ system.
Microfluidic Perfusion. An ONIX microfluidic perfusion system from CellAsic (Millipore Sigma) was used for flow-based experiments. The system comprises a perfusion pump system, which connects to a PC for multidimensional control of flow rates (converted from applied kPa, i.e., 27.6 kPA=20 μL/hr) and duration. The plates used for experiments herein are model Y04C. This plate system has a #1.5 glass bottom for imaging and contains four separate channels which have an observation region where fluid switching can occur homogenously. Plates were removed from vacuum packaging the day of experimentation and storage PBS was removed using a vacuum system. Each well was then filled with 400 μL of KCl solution and placed on the perfusion system. KCl solution was flowed through each channel and well (except for the waste well #7) at 20 μL/hr for 20 minutes to flush out any storage PBS. Next, one of the wells (#1 for each channel) was filled with 100 μL 0.1 mg/mL Pierce™ biotinylated-bovine serum albumin (B-BSA, Cat #29130, Thermo Scientific) in 125 mM KCl solution and this was then flowed through for 15 minutes total, then allowed to incubate for 15 minutes at room temperature. After the B-BSA was deposited on the glass surface of the channels, a 0.1 mg/mL solution of Neutravidin (Cat #31000, Thermo Scientific) in KCl solution was flowed for 15 minutes at room temperature to build a surface anchoring system for red blood cells.
For uptake measurements, cells incubated with biotinylated-α-glycophorin A+B antibodies were diluted 1:1 in KCl solution within well #8 and perfused using 20 μL/hr in combination with well #5 containing KCl solution only at 20 μL/hr for 10 seconds. Flowed cells were then allowed to incubate with the cell anchoring system described above for three minutes. […] Immediately after this time point, well #2 was stopped, and KCl solution only from well #5 was perfused at 20 μL/hr to wash away tracer (“washout”).
For uptake measurements, the 488 nm laser was configured for excitation to a power level of 0.07% of total laser voltage (i.e., 3.5 μW before the objective) with a pixel dwell time of 0.24 μs. For detection, the detector bandwidth was set to admit wavelengths 520 nm to 560 nm with a master gain of 500 V and digital gain set to 1×. The field of view was 1944 pixels×1944 pixels (or 192.8 μm×192.8 μm) which led to a total frame time of 989.11 ms for a single acquisition. With these settings and using the 40× magnification, the pixel size was ˜0.1 μm×˜0.1 μm.

[3] = 5 mM 2-NBDG, all cells, height corrected, FIG. 16B
[4] = normalized to the all donor mean, N=45, FIG. 18

Molecule	mean intensity maintained, % of the mean intensity of the control sample (GLUT1 [1]) [%]	competition with unlabeled D-glucose among three tracers (GLUT1 [1]; 0.00-100.00 mM D-glucose, FIG. 9C)	inhibition of tracer uptake by GLUT1 inhibitors, compared with other tracers (GLUT1 [2]; Phloretin, Cytochalasin B, WZB117, STF-31, BAY-876, 20 μM tracer, FIG. 1B)	specificity for the GLUT1 transporter (GLUT1 [2]; human RBCs, inhibitor panel and glucose competition experiments)	time to saturation point of intracellular 2-NBDG intensity (human erythrocytes; 5 mM 2-NBDG, 20 μL/hr, FIG. 11B)	mean intracellular glucose fraction, typical patient with higher fraction (human erythrocytes; 5 mM 2-NBDG, 1802 cells, cell heights ≥2.1 μm, mean±1 SD, FIG. 14B)	mean intracellular glucose fraction, typical patient with lower fraction (human erythrocytes; 5 mM 2-NBDG, 2343 cells, cell heights ≥2.1 μm, mean±1 SD, FIG. 14A)	mean intracellular percentage for this patient blood sample (human erythrocytes; 5 mM 2-NBDG, FIG. 11C) [%]	intracellular glucose percentage, Black patients (human erythrocytes; 5 mM 2-NBDG, FIG. 16A, n=20, mean±1 SD)	intracellular glucose percentage, Caucasian/Hispanic patients (human erythrocytes; 5 mM 2-NBDG, FIG. 16A, n=25, mean±1 SD)	mean (+/−SD) uptake normalized to overall mean, Black ancestry (human erythrocytes; 5 mM 2-NBDG, FIG. 17) [%+/−39%]	mean (+/−SD) uptake normalized to overall mean, White ancestry (human erythrocytes; 5 mM 2-NBDG, FIG. 17) [%+/−36%]	corrected intracellular glucose percentage (HCIG), Black patients (human erythrocytes; [3])	corrected intracellular glucose percentage (HCIG), Caucasian/Hispanic patients (human erythrocytes; [3])	stability of saturating intracellular level (plateau) (human erythrocytes; extended duration measurements, FIGS. 13A-13B)	mean normalized intracellular glucose, Black sub-group (human erythrocytes; [4])	mean normalized intracellular glucose, Hispanic/Caucasian sub-group (human erythrocytes; [4])
6-deoxy-2-[(7-nitro-2,1,3-benzoxadiazol-4-yl)amino]-D-glucose [6-NBDG]	13.8	–	–	–	–	–	–	–	–	–	–	–	–	–	–	–	–
O=C[C@H](Nc1ccc([N+](=O)[O-])c2nonc12)[C@@H](O)[C@H](O)[C@H](O)CO [2-NBDG, 2-deoxy-2-[(7-nitro-2,1,3-benzoxadiazol-4-yl)amino]-D-glucose]	1.4	highest competition	most inhibition; also recorded: consistently the most inhibited	highest specificity; also recorded: GLUT1 specific	within several seconds	6.7% and 6.7%±2.3%	4.6% and 4.6%±1.6%	4.9	0.057±0.018	0.044±0.018	118	86	0.060±0.020	0.044±0.018	stable for several hours	1.18	0.86
D-Glucose-Silicon rhodamine [D-glucose-SIR]	41.9	–	–	–	–	–	–	–	–	–	–	–	–	–	–	–	–
